Source: the supplement of paper PMC11061612

Tests used:
Assay in all cases: Bliss excess, mean over the matrix (fraction); higher = more synergy
[1] = system: SU-DHL-6 (B-Cell Non-Hodgkin's Lymphoma)
How it was run: (§1)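 Cell lines in DMEM/F12 or RPMI with 10% FBS were plated in 1536-well plates, held 24 hours at 37°C, 5% CO2, then given two-drug dose matrices for 72 hours (DMSO typically 0.2%). Viability was read by CellTiter-Glo 2.0 luminescence and scaled as inhibition from 0 (vehicle wells) to 1 (blank wells). Combination Emax is the second-highest inhibition in the matrix; Bliss excess is observed combination effect minus expected EA + EB − EA·EB, EA and EB being single-agent effects.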

[2] = system: EN (Endometrial Carcinoma)
How it was run: as §1

[3] = system: 8305C (Thyroid Gland Carcinoma)
How it was run: as §1

[4] = system: NCI-H747 (Colorectal Carcinoma)
How it was run: as §1

[5] = system: MHH-PREB-1 (B-Cell Non-Hodgkin's Lymphoma)
How it was run: as §1

NCI-H28 (Mesothelioma) = system: NCI-H28 (Mesothelioma)
How it was run: as §1

[6] = system: SUP-T1 (T-Lymphoblastic Leukemia)
How it was run: as §1

[7] = system: LoVo (Colorectal Carcinoma)
How it was run: as §1

[8] = system: HDLM-2 (Hodgkin's Lymphoma)
How it was run: as §1

[9] = system: OVCAR-8 (Ovarian Carcinoma)
How it was run: as §1

[10] = system: RPMI-6666 (Non-Cancerous)
How it was run: as §1

NCI-H2461 (Mesothelioma) = system: NCI-H2461 (Mesothelioma)
How it was run: as §1

[11] = system: CAL-51 (Breast Carcinoma)
How it was run: as §1

[12] = system: PCI-30 (Head and Neck Carcinoma)
How it was run: as §1

Mewo (Melanoma) = system: Mewo (Melanoma)
How it was run: as §1

[13] = system: LU-139 (Small Cell Lung Carcinoma)
How it was run: as §1

[14] = system: UMC-11 (Other Solid Carcinomas)
How it was run: as §1

[15] = system: 639-V (Bladder Carcinoma)
How it was run: as §1

[16] = system: MDA-MB-468 (Breast Carcinoma)
How it was run: as §1

Structure (SMILES)	Bliss excess [1]	Bliss excess [2]	Bliss excess [3]	Bliss excess [4]	Bliss excess [5]	Bliss excess (NCI-H28 (Mesothelioma))	Bliss excess [6]	Bliss excess [7]	Bliss excess [8]	Bliss excess [9]	Bliss excess [10]	Bliss excess (NCI-H2461 (Mesothelioma))	Bliss excess [11]	Bliss excess [12]	Bliss excess (Mewo (Melanoma))	Bliss excess [13]	Bliss excess [14]	Bliss excess [15]	Bliss excess [16]
C=CCn1c(=O)c2cnc(Nc3ccc(N4CCN(C)CC4)cc3)nc2n1-c1cccc(C(C)(C)O)n1 [AZD1775] + C1CN(CCC1(C(=O)N[C@@H](CCO)C2=CC=C(C=C2)Cl)N)C3=NC=NC4=C3C=CN4 [Capivasertib] (first compound max 3 µM, partner max 3 µM)	0.0012	-0.0623	0.0069	-0.0485	-0.005	-0.0725	-0.0212	0.0281	-0.0503	-0.0167	-0.0148	-0.0587	-0.0188	-0.0677	-0.0433	0.0096	0.0101	-0.0541	
C=CCn1c(=O)c2cnc(Nc3ccc(N4CCN(C)CC4)cc3)nc2n1-c1cccc(C(C)(C)O)n1 [AZD1775] + CCc1c2c(nc3ccc(O)cc13)-c1cc3c(c(=O)n1C2)COC(=O)[C@]3(O)CC [SN-38] (first compound max 1 µM, partner max 0.3 µM)	0.0224	0.0209	-0.0536			-0.0503	-0.105	-0.0388	-0.0928		-0.048	-0.1		0.0013	-0.0402	-0.0526			-0.0811
COc1nnc2ccc(N3CCC(c4ccc(OCCN5CCN(C)C(=O)[C@H]5C)cc4)CC3)nn12 [AZD5153] + C=CCn1c(=O)c2cnc(Nc3ccc(N4CCN(C)CC4)cc3)nc2n1-c1cccc(C(C)(C)O)n1 [AZD1775] (first compound max 1 µM, partner max 1 µM)	-0.0656	-0.0753	-0.077	-0.0633	0.007	-0.0562	-0.068	-0.0349	-0.125	-0.0631	-0.0821	-0.0344	-0.0111	-0.0307	-0.0245	-0.0474	0.0058	-0.0367	
COc1nnc2ccc(N3CCC(c4ccc(OCCN5CCN(C)C(=O)[C@H]5C)cc4)CC3)nn12 [AZD5153] + CC1(C)CCC(CN2CCN(c3ccc(C(=O)NS(=O)(=O)c4ccc(NCC5CCOCC5)c([N+](=O)[O-])c4)c(Oc4cnc5[nH]ccc5c4)c3)CC2)=C(c2ccc(Cl)cc2)C1 [Venetoclax] (first compound max 1 µM, 7x7, partner max 1 µM)	0.0401	-0.0567	-0.0901	-0.0522	-0.055	0.0174	-0.0766	-0.0378	-0.0645	0.0035	-0.0153	-0.0438	-0.0513	-0.0894	-0.0605	0.0391	0.0234	-0.0962	
COc1cc2ncnc(Nc3ccc(F)c(Cl)c3)c2cc1OCCCN1CCOCC1 [Gefitinib] + CC(C)n1c(=O)n(C)c2cnc3cc(F)c(-c4ccc(OCCCN5CCCCC5)nc4)cc3c21 [AZD1390] (first compound max 10 µM, 7x7, partner max 0.3 µM)	0.0167	-0.0318	-0.147	-0.0986	-0.0748		-0.0389	-0.0418	-0.0768	-0.0633	-0.0657	-0.0733	-0.0485	-0.0871	-0.0712	-0.0251	-0.0399	-0.0765	
CS(=O)(=O)CCNCc1ccc(-c2ccc3ncnc(Nc4ccc(OCc5cccc(F)c5)c(Cl)c4)c3c2)o1 [Lapatinib] + Cn1cnc2c(F)c(Nc3ccc(Br)cc3Cl)c(C(=O)NOCCO)cc21 [Selumetinib] (first compound max 10 µM, 7x7, partner max 10 µM)	0.0412	-0.0829	-0.0297			-0.0026	-0.0679	0.0361	0.0023		0.0204	-0.0492		0.0027	-0.0029	-0.0161			-0.0835
CS(=O)(=O)CCNCc1ccc(-c2ccc3ncnc(Nc4ccc(OCc5cccc(F)c5)c(Cl)c4)c3c2)o1 [Lapatinib] + NC1(c2ccc(-c3nc4ccn5c(=O)[nH]nc5c4cc3-c3ccccc3)cc2)CCC1 [MK-2206] (first compound max 10 µM, 7x7, partner max 10 µM)	0.0378	-0.0024	0.118	-0.126		-0.0103	-0.0215	0.0841	-0.0168		0.0164	-0.0423		-0.0005	0.0072	0.0119			0.0008
Cc1nc(-c2cn3c(n2)-c2ccc(-c4cnn(C(C)(C)C(N)=O)c4)cc2OCC3)n(C(C)C)n1 [Taselisib] + O=C(Nc1ccc2[nH]nc(-c3ccncc3)c2c1)[C@@H]1CCN(CC(=O)N2CCN(c3ccc(-c4ncccn4)cc3)CC2)C1 [SCH772984] (first compound max 10 µM, 7x7, partner max 5 µM)	0.0251	-0.034	0.0199			0.0417	0.0502	-0.0284	0.0529		-0.001	-0.012		0.023	0.017	-0.0066			-0.003
